According to patent publication US20260232767A1, “INTERLEUKIN-23 RECEPTOR ANTAGONIST PEPTIDES FOR USE IN THE TREATMENT OF PSORIASIS” (Janssen Pharmaceutica NV, priority 2023, published 2026):

System: subjects with moderate-to-severe plaque psoriasis
Experiment: Safety, adverse events, Example 2 through Week 56
Assay type: in vivo, human
Description: The LTE safety analysis was based on randomized participants in Example who entered the present long-term extension study and received at least one dose of study intervention (including a partial dose) during the study period.

[1] = 100 mg BID, Week 16 through Week 56
[2] = 100 mg BID, LTE Safety analysis set

CC(=O)NCCCC[C@@H]1NC(=O)[C@H](Cc2c[nH]c3c(C)cccc23)NC(=O)[C@H]([C@@H](C)O)NC(=O)[C@H](CC(N)=O)NC(=O)[C@@H](NC(C)=O)C(C)(C)SSC(C)(C)[C@@H](C(=O)N[C@@H](Cc2ccc(OCCN)cc2)C(=O)N[C@@H](Cc2ccc3ccccc3c2)C(=O)NC2(C(=O)N[C@@H](CCC(=O)O)C(=O)N[C@@H](CC(N)=O)C(=O)N[C@@H](Cc3cccnc3)C(=O)N(C)CC(N)=O)CCOCC2)NC1=O [IL-23 receptor antagonist peptide, Ac-[Pen]*-N-T-[W(7-Me)]-[Lys(Ac)]-[Pen]*-Phe[4-(2-aminoethoxy)]-[2-Nal]-[THP]-E-N-[3-Pal]-Sarc-NH2 (*[Pen]-[Pen]* formdisulfidebond)]
Renal mass: number of subjects (50 mg QD, through Week 56): 0 | Respiratory, thoracic and mediastinal disorders: % of subjects (50 mg QD, through Week 56): (4.7%) | Respiratory, thoracic and mediastinal disorders: number of subjects (50 mg QD, through Week 56): 2 | Retinal vein occlusion: number of subjects (50 mg QD, through Week 56): 0 | Rhinorrhoea: number of subjects (50 mg QD, through Week 56): 0 | Seasonal allergy: % of subjects (50 mg QD, through Week 56): (2.3%) | Seasonal allergy: number of subjects (50 mg QD, through Week 56): 1 | Skin and subcutaneous tissue disorders: % of subjects (50 mg QD, through Week 56): (9.3%) | Skin and subcutaneous tissue disorders: number of subjects (50 mg QD, through Week 56): 4 | Skin laceration: number of subjects (50 mg QD, through Week 56): 0 | Skin papilloma: % of subjects (50 mg QD, through Week 56): (2.3%) | Skin papilloma: number of subjects (50 mg QD, through Week 56): 1 | Social circumstances: % of subjects (50 mg QD, through Week 56): (2.3%) | Social circumstances: number of subjects (50 mg QD, through Week 56): 1 | Steatohepatitis: number of subjects (50 mg QD, through Week 56): 0 | Subjects with AE leading to discontinuation: Abdominal discomfort (50 mg QD, through Week 56): 0 | Subjects with AE leading to discontinuation: Alanine aminotransferase increased (50 mg QD, through Week 56): 0 | Subjects with AE leading to discontinuation: Aspartate aminotransferase increased (50 mg QD, through Week 56): 0 | Subjects with AE leading to discontinuation: Asthenia (50 mg QD, through Week 56): 0 | Subjects with AE leading to discontinuation: Chills (50 mg QD, through Week 56): 0 | Subjects with AE leading to discontinuation: Ear and labyrinth disorders (50 mg QD, through Week 56): 0 | Subjects with AE leading to discontinuation: Gamma-glutamyltransferase increased (50 mg QD, through Week 56): 0 | Subjects with AE leading to discontinuation: General disorders and administration site conditions (50 mg QD, through Week 56): 0 | Subjects with AE leading to discontinuation: Headache (50 mg QD, through Week 56): 0 | Subjects with AE leading to discontinuation: Insomnia (50 mg QD, through Week 56): 0 | Subjects with AE leading to discontinuation: Investigations (50 mg QD, through Week 56): 0 | Subjects with AE leading to discontinuation: Nervous system disorders (50 mg QD, through Week 56): 0 | Subjects with AE leading to discontinuation: Proctalgia (50 mg QD, through Week 56): 0 | Subjects with AE leading to discontinuation: Psoriasis (50 mg QD, through Week 56): 0 | Subjects with AE leading to discontinuation: Psychiatric disorders (50 mg QD, through Week 56): 0 | Subjects with AE leading to discontinuation: Skin and subcutaneous tissue disorders (50 mg QD, through Week 56): 0 | Subjects with AE leading to discontinuation: Suicide attempt (50 mg QD, through Week 56): 0 | Subjects with AE leading to discontinuation: Transaminases increased (50 mg QD, through Week 56): 0 | Subjects with AE leading to discontinuation: Vertigo (50 mg QD, through Week 56): 0 | Subjects with AE leading to discontinuation: Vomiting (50 mg QD, through Week 56): 0 | Subjects with AE leading to discontinuation: Weight increased (50 mg QD, through Week 56): 0 | Subjects with COVID-19 associated AE: SARS-CoV-2 test positive (50 mg QD, through Week 56): 0 | Subjects with treatment-emergent serious AE: COVID-19 (50 mg QD, through Week 56): 0 | Subjects with treatment-emergent serious AE: Cerebrovascular accident (50 mg QD, through Week 56): 0 | Subjects with treatment-emergent serious AE: Diverticulitis (50 mg QD, through Week 56): 0 | Subjects with treatment-emergent serious AE: Injury, poisoning and procedural complications (50 mg QD, through Week 56): 0 | Subjects with treatment-emergent serious AE: Intervertebral disc protrusion (50 mg QD, through Week 56): 0 | Subjects with treatment-emergent serious AE: Ligament injury (50 mg QD, through Week 56): 0 | Subjects with treatment-emergent serious AE: Neoplasms benign, malignant and unspecified (incl cysts and polyps) (50 mg QD, through Week 56): 0 | Subjects with treatment-emergent serious AE: Nervous system disorders (50 mg QD, through Week 56): 0 | Subjects with treatment-emergent serious AE: Psychiatric disorders (50 mg QD, through Week 56): 0 | Subjects with treatment-emergent serious AE: Respiratory, thoracic and mediastinal disorders (50 mg QD, through Week 56): 0 | Subjects with treatment-emergent serious AE: Suicide attempt (50 mg QD, through Week 56): 0 | Subjects with treatment-emergent serious AE: Tonsillar hypertrophy (50 mg QD, through Week 56): 0 | Subjects with treatment-emergent serious AE: Uterine leiomyoma (50 mg QD, through Week 56): 0 | Subjects with treatment-emergent serious AE: Ventricular dysfunction (50 mg QD, through Week 56): 0 | Suicide attempt: number of subjects (50 mg QD, through Week 56): 0 | Sunburn: number of subjects (50 mg QD, through Week 56): 0 | Thrombocytopenia: number of subjects (50 mg QD, through Week 56): 0 | Thrombocytosis: number of subjects (50 mg QD, through Week 56): 0 | Tonsillar hypertrophy: number of subjects (50 mg QD, through Week 56): 0 | Tooth fracture: number of subjects (50 mg QD, through Week 56): 0 | Type 2 diabetes mellitus: number of subjects (50 mg QD, through Week 56): 0 | Urinary tract disorder: number of subjects (50 mg QD, through Week 56): 0 | Uterine leiomyoma: number of subjects (50 mg QD, through Week 56): 0 | Vascular disorders: % of subjects (50 mg QD, through Week 56): (2.3%) | Vascular disorders: number of subjects (50 mg QD, through Week 56): 1 | Ventricular dysfunction: number of subjects (50 mg QD, through Week 56): 0 | Vertigo: number of subjects (50 mg QD, through Week 56): 0 | Vitamin D deficiency: number of subjects (50 mg QD, through Week 56): 0 | Number of subjects with treatment-emergent AE: Cholelithiasis [1]: 0 | Number of subjects with treatment-emergent AE: Ear and labyrinth disorders [1]: 0 | Number of subjects with treatment-emergent AE: Endocrine disorders [1]: 0 | Number of subjects with treatment-emergent AE: Eye disorders [1]: 0 | Number of subjects with treatment-emergent AE: Eyelid skin dryness [1]: 0 | Number of subjects with treatment-emergent AE: Goiter [1]: 0 | Number of subjects with treatment-emergent AE: Hepatobiliary disorders [1]: 0 | Number of subjects with treatment-emergent AE: Hypertransaminasemia [1]: 0 | Number of subjects with treatment-emergent AE: Immune system disorders [1]: 1 | Number of subjects with treatment-emergent AE: Insomnia [1]: 0 | Number of subjects with treatment-emergent AE: Ocular cyst [1]: 0 | Number of subjects with treatment-emergent AE: Psychiatric disorders [1]: 0 | Number of subjects with treatment-emergent AE: Retinal vein occlusion [1]: 0 | Number of subjects with treatment-emergent AE: Seasonal allergy [1]: 1 | Number of subjects with treatment-emergent AE: Vertigo [1]: 0 | Subjects with treatment-emergent AE: Immune system disorders (%) [1]: (2.6%) | Subjects with treatment-emergent AE: Seasonal allergy (%) [1]: (2.6%) | Subjects who discontinued study agent because of 1 or more adverse events [2]: 0 | Subjects with 1 or more Serious Infections and infestations [2]: 0 | Subjects with adverse event: Arthralgia [2]: 0 | Subjects with adverse event: Bronchitis [2]: 0 | Subjects with adverse event: Headache [2]: 0 | Subjects with adverse event: Meniscus injury [2]: 0 | Subjects with adverse event: Sinusitis [2]: 0 | Subjects with adverse event: Vomiting [2]: 0 | Subjects with serious adverse event: Cerebrovascular accident [2]: 0 | Subjects with serious adverse event: Coronary artery disease [2]: 0 | Subjects with serious adverse event: Diverticulitis [2]: 0 | Subjects with serious adverse event: Foot deformity [2]: 0 | Subjects with serious adverse event: Intervertebral disc protrusion [2]: 0 | Subjects with serious adverse event: Ligament injury [2]: 0 | Subjects with serious adverse event: Non-cardiac chest pain [2]: 0 | Subjects with serious adverse event: Tonsillar hypertrophy [2]: 0 | Subjects with serious adverse event: Ventricular dysfunction [2]: 0 | Subjects with 1 or more treatment-emergent adverse events leading to discontinuation of study agent (100 mg BID, Week 16-56): 0 | Subjects with AE leading to discontinuation: Alanine aminotransferase increased (100 mg BID, Week 16-56): 0 | Subjects with AE leading to discontinuation: Aspartate aminotransferase increased (100 mg BID, Week 16-56): 0 | Subjects with AE leading to discontinuation: Asthenia (100 mg BID, Week 16-56): 0 | Subjects with AE leading to discontinuation: Chills (100 mg BID, Week 16-56): 0 | Subjects with AE leading to discontinuation: Ear and labyrinth disorders (100 mg BID, Week 16-56): 0 | Subjects with AE leading to discontinuation: Gamma-glutamyltransferase increased (100 mg BID, Week 16-56): 0 | Subjects with AE leading to discontinuation: Gastrointestinal disorders (100 mg BID, Week 16-56): 0 | Subjects with AE leading to discontinuation: General disorders and administration site conditions (100 mg BID, Week 16-56): 0 | Subjects with AE leading to discontinuation: Headache (100 mg BID, Week 16-56): 0 | Subjects with AE leading to discontinuation: Insomnia (100 mg BID, Week 16-56): 0 | Subjects with AE leading to discontinuation: Investigations (100 mg BID, Week 16-56): 0 | Subjects with AE leading to discontinuation: Nervous system disorders (100 mg BID, Week 16-56): 0 | Subjects with AE leading to discontinuation: Proctalgia (100 mg BID, Week 16-56): 0 | Subjects with AE leading to discontinuation: Psoriasis (100 mg BID, Week 16-56): 0 | Subjects with AE leading to discontinuation: Psychiatric disorders (100 mg BID, Week 16-56): 0 | Subjects with AE leading to discontinuation: Skin and subcutaneous tissue disorders (100 mg BID, Week 16-56): 0 | Subjects with AE leading to discontinuation: Vertigo (100 mg BID, Week 16-56): 0 | Subjects with AE leading to discontinuation: Vomiting (100 mg BID, Week 16-56): 0 | Subjects with treatment-emergent AE: Arthralgia (100 mg BID, Week 16-56): 0 | Subjects with treatment-emergent AE: Bronchitis (100 mg BID, Week 16-56): 0 | Subjects with treatment-emergent AE: Gastrointestinal disorders (100 mg BID, Week 16-56): 0
